Results taken from patent US5578622A, “Isothiazole derivatives and their uses” (Asamura Patent Office, priority 1994, dated 1996).

Legend:
[1] = system: Gibberella fujikuroi ("Bakanae" disease of rice); assay: Test for rice seed-disinfecting effect; assay type: in vivo; settings: Fusarium fujikuroi, 504 h, seed immersion 25° C. 24 hours, three weeks after treatment, read-out: Controlling effect (control of disease), "Bakanae" disease of rice
Procedure, shortened: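 Bakanae-infected unhulled rice seed soaked 24 hours at 25° C in 1000 ppm compound, then sown and germinated two days. Infected-seedling rate scored three weeks after treatment; control calculated against untreated plot and graded on a standard scale.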

Tyromyces palustris = assay: Test for wood rotting-preventing effect (mycelium growth inhibition on malt extract agar); assay type: cell-based; settings: 28° C.±2° C., 2 to 10 days, read-out: Rotting preventing effect (mycelium growth-inhibitory rate), TYP
Procedure, shortened: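 Mycelial agar disks (4 mm) were placed on malt extract agar containing test compound at 50 ppm and grown at 28° C.±2° C. Colony diameter was measured 2-10 days after inoculation and converted to percent mycelium growth inhibition, reported as symbol grades.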

[2] = system: Aspergillus fumigatus TIMM 0063; assay: In vitro antimycotic activity on Aspergillus fumigatus; assay type: cell-based; settings: TIMM0063, 10 (ppm), Casitone agar, 37° C., 48 hours, read-out: Antimycotic activity (growth inhibitory rate), A.fumigatus
Procedure: 3-2 In vitro antimycotic activity on Aspergillus fumigatus.
To Aspergillus fumigatus TIMM 0063 precultured at 37° C. for 48 hours on a potato dextrose agar (PDA) slant medium was added a sterilized physiological salt solution containing 0.1%(W/V) Tween 80. After conidia were made free from the solution, the solution was filtered through a sterilized two-sheet gauze to remove the mycelium mass. The number of the conidia in the resulting suspension was counted with a globulimeter and adjusted so as to be 1×10^5 conidia/ml with a sterilized physiological salt solution containing 0.1%(W/V) Tween 80. This solution was used as an inoculum solution. Casitone agar plate medium containing the DMSO solution of the test compound in a rate of 1% (V/V) was inoculated with the inoculum solution at four places thereof with a microplanter, and cultured with the medium allowed to stand at 37° C. for 48 hours. After culture, the diameter of the mycelium disks cultivated at the four inoculated parts was measured, and its mean value was obtained. The growth inhibitory rate was calculated according to the following equation, and the antimycotic activity was shown in the same manner as in Test Example 3-1.
Growth inhibitory rate (%)=(1-W'/Y')×100
Y': Diameter of mycelium disk of DMSO control group
W': Diameter of mycelium disk of test compound group

CN(C)c1snc(OCC#CI)c1C#N [Compound 30, 3-(3-iodo-2-propynyloxy)-4-cyano-5-dimethylaminoisothiazole]
pest or weed control at 1000 ppm [1]: 95 to 100%
inhibition at 50 ppm (Tyromyces palustris): 95 to 100%
inhibition of growth at 10 µg/mL [2]: 100%

N#Cc1c(OC(F)F)nsc1OCCC#CI [Compound 82]
pest or weed control at 1000 ppm [1]: 95 to 100%
inhibition at 50 ppm (Tyromyces palustris): 95 to 100%
inhibition of growth at 10 µg/mL [2]: 100%

COc1nsc(OCC#CI)c1C#N [Compound 48]
pest or weed control at 1000 ppm [1]: 95 to 100%
inhibition at 50 ppm (Tyromyces palustris): 95 to 100%
inhibition of growth at 10 µg/mL [2]: 100%

CSc1snc(OCC#CI)c1C#N [Compound 1, 3-(3-iodo-2-propynyloxy)-4-cyano-5-methylthioisothiazole]
pest or weed control at 1000 ppm [1]: 95 to 100%
inhibition at 50 ppm (Tyromyces palustris): 95 to 100%
inhibition of growth at 10 µg/mL [2]: 100%

CSc1snc(OCCC#CI)c1C#N [Compound 70]
pest or weed control at 1000 ppm [1]: 80 to 94%
inhibition at 50 ppm (Tyromyces palustris): 95 to 100%
inhibition of growth at 10 µg/mL [2]: 100%

N#Cc1c(OC(F)F)nsc1SCOCC#CI [Compound 60]
pest or weed control at 1000 ppm [1]: 95 to 100%
inhibition at 50 ppm (Tyromyces palustris): 95 to 100%
inhibition of growth at 10 µg/mL [2]: 100%

CCOc1nsc(SCOCC#CI)c1C#N [Compound 54]
pest or weed control at 1000 ppm [1]: 95 to 100%
inhibition at 50 ppm (Tyromyces palustris): 95 to 100%
inhibition of growth at 10 µg/mL [2]: 100%

N#Cc1c(OCC#CI)nsc1SC(F)F [Compound 12, 3-(3-iodo-2-propynyloxy)-4-cyano-5-difluoromethylthioisothiazole]
pest or weed control at 1000 ppm [1]: 95 to 100%
inhibition at 50 ppm (Tyromyces palustris): 95 to 100%
inhibition of growth at 10 µg/mL [2]: 100%

CCOc1snc(OCOCC#CI)c1C#N [Compound 96]
pest or weed control at 1000 ppm [1]: 95 to 100%
inhibition at 50 ppm (Tyromyces palustris): 95 to 100%
inhibition of growth at 10 µg/mL [2]: 100%

N#Cc1c(OCOCC#CI)nsc1SC(F)F [Compound 90]
pest or weed control at 1000 ppm [1]: 95 to 100%
inhibition at 50 ppm (Tyromyces palustris): 95 to 100%
inhibition of growth at 10 µg/mL [2]: 100%

CC(C)Oc1snc(OCC#CI)c1C#N [Compound 23]
pest or weed control at 1000 ppm [1]: 95 to 100%
inhibition at 50 ppm (Tyromyces palustris): 95 to 100%
inhibition of growth at 10 µg/mL [2]: 100%

CS(=O)(=O)c1snc(OCC#CI)c1C#N [Compound 41, 3-(3-iodo-2-propynyloxy)-4-cyano-5-methylsulfonylisothiazole]
pest or weed control at 1000 ppm [1]: 95 to 100%
inhibition at 50 ppm (Tyromyces palustris): 95 to 100%
inhibition of growth at 10 µg/mL [2]: 100%

CSc1nsc(SCOCC#CI)c1C#N [Compound 136]
pest or weed control at 1000 ppm [1]: 80 to 94%
inhibition at 50 ppm (Tyromyces palustris): 95 to 100%
inhibition of growth at 10 µg/mL [2]: 100%

N#Cc1c(OCC#CI)nsc1S(=O)(=O)C(F)F [Compound 43]
pest or weed control at 1000 ppm [1]: 95 to 100%
inhibition at 50 ppm (Tyromyces palustris): 95 to 100%
inhibition of growth at 10 µg/mL [2]: 100%

COc1snc(OCC#CI)c1C#N [Compound 21, 3-(3-iodo-2-propynyloxy)-4-cyano-5-methoxyisothiazole]
pest or weed control at 1000 ppm [1]: 95 to 100%
inhibition at 50 ppm (Tyromyces palustris): 95 to 100%
inhibition of growth at 10 µg/mL [2]: 100%

CSc1snc(OC(C)OCC#CI)c1C#N (stereo not drawn) [Compound 119]
pest or weed control at 1000 ppm [1]: 95 to 100%
inhibition at 50 ppm (Tyromyces palustris): 95 to 100%
inhibition of growth at 10 µg/mL [2]: 100%
